{"source": "patent US20050101563A1", "about": "“Method and compositions for the treatment and prevention of pain and inflammation” (Pharmacia Corporation, priority 2001, published 2005)", "origin": "cited, not measured here", "key": {"[1]": {"test_system": "Cox-2", "details": "enzyme inhibitory compounds of Ligustrum lucidum extracts"}, "[2]": {"test_system": "rats", "details": "orally administered; sponge implants in rats"}, "[3]": {"details": "orally administered; rats"}, "[4]": {"test_system": "patients with knee osteoarthritis", "details": "1500 mg/day, 3 years"}, "[5]": {"test_system": "human chondrocytes"}}, "data": [{"compound": "CC1(C)CC[C@]2(C(=O)O)CC[C@]3(C)C(=CC[C@@H]4[C@@]5(C)CC[C@H](O)C(C)(C)[C@@H]5CC[C@]43C)[C@@H]2C1", "note": "[oleanic acid]", "values": [{"measurement": "selectivity for the inhibition of Cox-2 versus Cox-1", "setting": "[1]", "value": "not substantially more selective for the inhibition of Cox-2 than for Cox-1"}]}, {"compound": "chondroitin sulfate", "values": [{"measurement": "granuloma formation", "setting": "[2]", "value": "significantly decrease granuloma formation"}, {"measurement": "tissue tropism", "setting": "[3]", "value": "tropism for cartilagineous tissues"}]}, {"compound": "N[C@H]1C(O)O[C@H](CO)[C@@H](O)[C@@H]1O.O=S(=O)(O)O", "note": "(stereo partly drawn) [glucosamine sulfate]", "values": [{"measurement": "joint-space loss", "setting": "[4]", "value": "no significant joint-space loss"}]}, {"compound": "C[C@H]1[C@H](C)CC[C@]2(C(=O)O)CC[C@]3(C)C(=CC[C@@H]4[C@@]5(C)CC[C@H](O)C(C)(C)[C@@H]5CC[C@]43C)[C@H]12", "note": "[ursolic acid]", "values": [{"measurement": "selectivity for the inhibition of Cox-2 versus Cox-1", "setting": "[1]", "value": "not substantially more selective for the inhibition of Cox-2 than for Cox-1"}]}, {"compound": "CC(=O)N[C@H]1C(O)O[C@H](CO)[C@@H](O)[C@@H]1O", "note": "(stereo partly drawn) [N-acetylglucosamine]", "values": [{"measurement": "IL-1-beta-mediated activation of chondrocytes", "setting": "[5]", "value": "prevent IL-1-beta-mediated activation of human chondrocytes"}]}]}
